The record followed here is ChEMBL document CHEMBL4152382, “Discovery of Tarantula Venom-Derived NaV1.7-Inhibitory JzTx-V Peptide 5-Br-Trp24 Analogue AM-6120 with Systemic Block of Histamine-Induced Pruritis” (J Med Chem, 2018).

pIC50: −log10 of the molar value.

Assay [1] has as its target Sodium channel protein type 4 subunit alpha (Homo sapiens, UniProt P35499). The assay can be described thus: Inhibition of human Nav1.4 expressed in HEK293 cells at holding potential of -125 mV […] by patchxpress-based electrophysiology assay. The assay is classed as cell-based.
Assay [2] has as its target Sodium channel protein type 9 subunit alpha (Homo sapiens, UniProt Q15858). The assay can be described thus: Inhibition of human Nav1.7 expressed in HEK293 cells at holding potential of -125 mV […] by patchxpress-based electrophysiology assay. The assay is classed as cell-based.

Sodium channel protein type 4 subunit alpha, sequence (P35499 whole entry): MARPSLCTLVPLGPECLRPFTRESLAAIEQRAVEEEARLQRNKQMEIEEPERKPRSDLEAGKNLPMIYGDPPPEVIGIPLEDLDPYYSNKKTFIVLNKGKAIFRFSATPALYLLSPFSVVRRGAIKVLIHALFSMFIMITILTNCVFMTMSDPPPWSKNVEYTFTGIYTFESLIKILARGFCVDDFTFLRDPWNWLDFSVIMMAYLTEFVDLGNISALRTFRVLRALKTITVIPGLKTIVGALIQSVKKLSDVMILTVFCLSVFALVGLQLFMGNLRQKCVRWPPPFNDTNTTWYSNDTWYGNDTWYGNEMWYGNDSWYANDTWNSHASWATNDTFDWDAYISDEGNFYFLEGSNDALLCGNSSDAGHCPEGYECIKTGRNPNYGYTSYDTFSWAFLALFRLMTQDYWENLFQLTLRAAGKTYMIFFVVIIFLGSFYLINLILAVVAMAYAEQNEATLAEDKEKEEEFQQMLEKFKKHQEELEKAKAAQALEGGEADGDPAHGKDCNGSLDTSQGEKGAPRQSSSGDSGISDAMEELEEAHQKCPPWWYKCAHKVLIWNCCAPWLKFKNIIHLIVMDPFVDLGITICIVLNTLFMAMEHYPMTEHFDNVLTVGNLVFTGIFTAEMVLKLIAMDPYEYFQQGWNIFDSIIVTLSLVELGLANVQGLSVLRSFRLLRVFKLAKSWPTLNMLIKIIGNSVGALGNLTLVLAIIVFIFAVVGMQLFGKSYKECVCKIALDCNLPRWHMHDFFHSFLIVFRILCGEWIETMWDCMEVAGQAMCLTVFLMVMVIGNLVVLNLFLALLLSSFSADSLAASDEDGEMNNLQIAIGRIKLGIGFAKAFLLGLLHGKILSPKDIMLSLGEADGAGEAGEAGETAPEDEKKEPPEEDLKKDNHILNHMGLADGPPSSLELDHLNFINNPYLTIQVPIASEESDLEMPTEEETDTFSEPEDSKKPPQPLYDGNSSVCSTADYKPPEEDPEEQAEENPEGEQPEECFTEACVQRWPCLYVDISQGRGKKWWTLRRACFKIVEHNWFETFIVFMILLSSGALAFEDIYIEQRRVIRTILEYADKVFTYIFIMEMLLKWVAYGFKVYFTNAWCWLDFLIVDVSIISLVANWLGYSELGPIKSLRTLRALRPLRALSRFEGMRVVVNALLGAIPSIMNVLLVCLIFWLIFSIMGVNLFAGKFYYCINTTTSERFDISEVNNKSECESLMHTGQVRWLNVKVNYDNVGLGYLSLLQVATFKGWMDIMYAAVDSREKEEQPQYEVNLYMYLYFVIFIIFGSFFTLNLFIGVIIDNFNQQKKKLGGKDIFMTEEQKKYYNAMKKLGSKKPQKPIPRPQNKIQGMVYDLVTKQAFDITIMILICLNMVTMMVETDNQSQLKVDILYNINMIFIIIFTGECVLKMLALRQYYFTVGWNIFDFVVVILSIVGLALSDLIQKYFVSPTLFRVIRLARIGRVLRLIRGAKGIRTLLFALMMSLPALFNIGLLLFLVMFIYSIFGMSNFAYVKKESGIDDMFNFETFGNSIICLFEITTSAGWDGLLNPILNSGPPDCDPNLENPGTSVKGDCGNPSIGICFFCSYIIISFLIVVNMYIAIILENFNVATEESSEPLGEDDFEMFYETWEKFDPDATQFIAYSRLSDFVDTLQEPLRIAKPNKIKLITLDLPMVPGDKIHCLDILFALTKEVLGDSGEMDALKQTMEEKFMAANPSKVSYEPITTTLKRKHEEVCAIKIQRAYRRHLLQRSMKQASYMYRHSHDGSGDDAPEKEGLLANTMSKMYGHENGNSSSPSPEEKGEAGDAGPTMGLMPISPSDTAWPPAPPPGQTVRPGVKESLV
Sodium channel protein type 9 subunit alpha, sequence (Q15858 whole entry): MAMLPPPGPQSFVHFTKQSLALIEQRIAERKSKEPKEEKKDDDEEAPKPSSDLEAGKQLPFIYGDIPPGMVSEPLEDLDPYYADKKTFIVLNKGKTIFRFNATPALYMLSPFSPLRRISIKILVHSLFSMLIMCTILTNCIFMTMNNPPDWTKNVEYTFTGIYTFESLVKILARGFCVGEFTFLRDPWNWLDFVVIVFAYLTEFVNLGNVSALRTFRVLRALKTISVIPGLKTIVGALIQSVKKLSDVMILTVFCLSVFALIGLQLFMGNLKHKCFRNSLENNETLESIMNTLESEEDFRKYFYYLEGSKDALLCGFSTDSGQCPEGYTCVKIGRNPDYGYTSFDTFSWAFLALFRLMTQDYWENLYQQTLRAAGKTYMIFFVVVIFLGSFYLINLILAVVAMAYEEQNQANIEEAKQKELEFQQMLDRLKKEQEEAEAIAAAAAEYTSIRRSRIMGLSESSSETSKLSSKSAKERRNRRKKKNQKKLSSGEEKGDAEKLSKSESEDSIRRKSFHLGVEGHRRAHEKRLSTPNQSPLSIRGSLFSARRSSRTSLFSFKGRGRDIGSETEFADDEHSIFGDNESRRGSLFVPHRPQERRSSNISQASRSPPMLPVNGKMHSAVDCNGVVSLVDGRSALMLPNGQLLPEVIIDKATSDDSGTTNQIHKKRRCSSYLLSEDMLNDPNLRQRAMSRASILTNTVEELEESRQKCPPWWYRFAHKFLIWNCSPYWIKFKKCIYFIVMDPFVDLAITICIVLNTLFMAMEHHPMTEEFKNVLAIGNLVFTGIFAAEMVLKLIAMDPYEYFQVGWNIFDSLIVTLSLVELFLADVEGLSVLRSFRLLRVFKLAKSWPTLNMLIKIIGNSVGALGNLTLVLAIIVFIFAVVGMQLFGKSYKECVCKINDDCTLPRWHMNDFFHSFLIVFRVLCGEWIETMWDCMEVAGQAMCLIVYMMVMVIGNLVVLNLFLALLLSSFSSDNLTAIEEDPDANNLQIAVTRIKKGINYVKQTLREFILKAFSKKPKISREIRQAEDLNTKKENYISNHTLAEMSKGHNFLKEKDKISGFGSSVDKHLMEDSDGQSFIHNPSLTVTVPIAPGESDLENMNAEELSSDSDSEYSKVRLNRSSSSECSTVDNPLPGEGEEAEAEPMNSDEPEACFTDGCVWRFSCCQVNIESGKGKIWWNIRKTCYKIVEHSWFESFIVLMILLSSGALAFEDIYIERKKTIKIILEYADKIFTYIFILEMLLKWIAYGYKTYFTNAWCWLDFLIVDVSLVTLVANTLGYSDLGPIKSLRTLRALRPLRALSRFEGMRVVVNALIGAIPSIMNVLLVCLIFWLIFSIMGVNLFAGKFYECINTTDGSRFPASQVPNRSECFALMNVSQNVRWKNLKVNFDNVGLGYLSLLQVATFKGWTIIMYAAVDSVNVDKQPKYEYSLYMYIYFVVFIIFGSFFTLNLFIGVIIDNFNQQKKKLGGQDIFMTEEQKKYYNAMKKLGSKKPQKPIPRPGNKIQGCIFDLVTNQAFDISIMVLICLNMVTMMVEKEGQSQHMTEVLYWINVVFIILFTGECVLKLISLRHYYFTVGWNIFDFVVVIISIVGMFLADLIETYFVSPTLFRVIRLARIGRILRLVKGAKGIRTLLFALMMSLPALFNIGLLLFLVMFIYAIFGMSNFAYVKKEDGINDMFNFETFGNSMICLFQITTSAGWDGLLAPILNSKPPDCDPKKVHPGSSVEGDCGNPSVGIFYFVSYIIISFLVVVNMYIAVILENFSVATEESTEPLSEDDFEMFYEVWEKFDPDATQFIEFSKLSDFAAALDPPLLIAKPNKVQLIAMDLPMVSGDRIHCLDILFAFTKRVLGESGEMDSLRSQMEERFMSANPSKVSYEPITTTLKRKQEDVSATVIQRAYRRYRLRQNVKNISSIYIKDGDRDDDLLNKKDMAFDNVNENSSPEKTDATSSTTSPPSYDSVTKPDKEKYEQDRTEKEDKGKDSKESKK

What is called pIC50 is the IC50 on a negative log10 scale, so that one unit is a factor of ten. Low readings indicate a high IC50, high ones a low IC50. Turning to `C#CC[C@H](N)C(=O)N[C@@H](Cc1ccc(O)cc1)C(=O)N[C@H]1CSSC[C@@H]2NC(=O)[C@@H]3CSSC[C@@H](C(=O)N[C@@H](CCCNC(=N)N)C(=O)N[C@@H](CCCCN)C(=O)N[C@@H](CCC(=O)O)C(=O)N[C@H](C(N)=O)[C@@H](C)CC)NC(=O)[C@H](Cc4c[nH]c5cc(Br)ccc45)NC(=O)[C@H](CC(C)C)NC(=O)[C@H](CCCCN)NC(=O)[C@H](CSSC[C@H](NC(=O)[C@H]([C@@H](C)O)NC(=O)[C@H](Cc4c[nH]c5ccccc45)NC(=O)[C@H](CCCC)NC(=O)[C@H](Cc4c[nH]c5ccccc45)NC(=O)[C@H](CCCCN)NC(=O)[C@H](CCC(N)=O)NC1=O)C(=O)N[C@@H](CC(=O)O)C(=O)N[C@@H](CO)C(=O)N[C@@H](CCCCN)C(=O)N[C@@H](CCCNC(=N)N)C(=O)N[C@@H](C)C(=O)N3)NC(=O)[C@H](CCCNC(=N)N)NC(=O)[C@H](CC(C)C)NC(=O)CNC(=O)[C@H](CCC(=O)O)NC2=O`, the figures for the pIC50 in assay [1] and in assay [2] were 7.41 and 8.05, respectively.
Take `C#CC[C@H](NC(=O)[C@@H](N)CCC(=O)O)C(=O)N[C@H]1CSSC[C@@H]2NC(=O)[C@@H]3CSSC[C@@H](C(=O)N[C@@H](CCCNC(=N)N)C(=O)N[C@@H](CCCCN)C(=O)N[C@@H](CCC(=O)O)C(=O)N[C@H](C(N)=O)[C@@H](C)CC)NC(=O)[C@H](Cc4c[nH]c5ccc(Br)cc45)NC(=O)[C@H](CC(C)C)NC(=O)[C@H](CCCCN)NC(=O)[C@H](CSSC[C@H](NC(=O)[C@H]([C@@H](C)O)NC(=O)[C@H](Cc4c[nH]c5ccccc45)NC(=O)[C@H](CCCC)NC(=O)[C@H](Cc4c[nH]c5ccccc45)NC(=O)[C@H](CCCCN)NC(=O)[C@H](CCC(N)=O)NC1=O)C(=O)N[C@@H](CC(=O)O)C(=O)N[C@@H](CO)C(=O)N[C@@H](CCCCN)C(=O)N[C@@H](CCCNC(=N)N)C(=O)N[C@@H](CCC(=O)O)C(=O)N3)NC(=O)[C@H](CCCNC(=N)N)NC(=O)[C@H](CC(C)C)NC(=O)CNC(=O)[C@H](CCC(=O)O)NC2=O`: the pIC50 is 6.74 in assay [1] and 8.89 in assay [2].
For `C#CC[C@H](N)C(=O)N[C@@H](Cc1ccc(O)cc1)C(=O)N[C@H]1CSSC[C@@H]2NC(=O)[C@@H]3CSSC[C@@H](C(=O)N[C@@H](CCCNC(=N)N)C(=O)N[C@@H](CCCCN)C(=O)N[C@@H](CCC(=O)O)C(=O)N[C@@H](Cc4ccccc4)C(N)=O)NC(=O)[C@H](Cc4c[nH]c5ccccc45)NC(=O)[C@H](CC(C)C)NC(=O)[C@H](CCCCN)NC(=O)[C@H](CSSC[C@H](NC(=O)[C@H]([C@@H](C)O)NC(=O)[C@H](Cc4c[nH]c5ccccc45)NC(=O)[C@H](CCCC)NC(=O)[C@H](Cc4c[nH]c5ccccc45)NC(=O)[C@H](CCCCN)NC(=O)[C@H](CCC(N)=O)NC1=O)C(=O)N[C@@H](CC(=O)O)C(=O)N[C@@H](CO)C(=O)N[C@@H](CCCCN)C(=O)N[C@@H](CCCNC(=N)N)C(=O)N[C@@H](C)C(=O)N3)NC(=O)[C@H](CCCNC(=N)N)NC(=O)[C@H](CC(C)C)NC(=O)CNC(=O)[C@H](CCC(=O)O)NC2=O` the same measures were 6.79 and 9.70.
On the same counts, the results for `C#CC[C@H](N)C(=O)N[C@@H](Cc1ccc(O)cc1)C(=O)N[C@H]1CSSC[C@@H]2NC(=O)[C@@H]3CSSC[C@@H](C(=O)N[C@@H](CCCNC(=N)N)C(=O)N[C@@H](CCCCN)C(=O)N[C@@H](CCC(=O)O)C(=O)N[C@@H](CCc4ccccc4)C(N)=O)NC(=O)[C@H](Cc4c[nH]c5ccccc45)NC(=O)[C@H](CC(C)C)NC(=O)[C@H](CCCCN)NC(=O)[C@H](CSSC[C@H](NC(=O)[C@H]([C@@H](C)O)NC(=O)[C@H](Cc4c[nH]c5ccccc45)NC(=O)[C@H](CCCC)NC(=O)[C@H](Cc4c[nH]c5ccccc45)NC(=O)[C@H](CCCCN)NC(=O)[C@H](CCC(N)=O)NC1=O)C(=O)N[C@@H](CC(=O)O)C(=O)N[C@@H](CO)C(=O)N[C@@H](CCCCN)C(=O)N[C@@H](CCCNC(=N)N)C(=O)N[C@@H](C)C(=O)N3)NC(=O)[C@H](CCCNC(=N)N)NC(=O)[C@H](CC(C)C)NC(=O)CNC(=O)[C@H](CCC(=O)O)NC2=O` are 7.64 and 9.52.
The molecule `C#CC[C@H](N)C(=O)N[C@@H](Cc1ccc(O)cc1)C(=O)N[C@H]1CSSC[C@@H]2NC(=O)[C@@H]3CSSC[C@@H](C(=O)N[C@@H](CCCNC(=N)N)C(=O)N[C@@H](CCCCN)C(=O)N[C@@H](CCC(=O)O)C(=O)N[C@@H](Cc4ccccc4)C(N)=O)NC(=O)[C@H](Cc4c[nH]c5ccc(Br)cc45)NC(=O)[C@H](CC(C)C)NC(=O)[C@H](CCCCN)NC(=O)[C@H](CSSC[C@H](NC(=O)[C@H]([C@@H](C)O)NC(=O)[C@H](Cc4c[nH]c5ccccc45)NC(=O)[C@H](CCCC)NC(=O)[C@H](Cc4c[nH]c5ccccc45)NC(=O)[C@H](CCCCN)NC(=O)[C@H](CCC(N)=O)NC1=O)C(=O)N[C@@H](CC(=O)O)C(=O)N[C@@H](CO)C(=O)N[C@@H](CCCCN)C(=O)N[C@@H](CCCNC(=N)N)C(=O)N[C@@H](C)C(=O)N3)NC(=O)[C@H](CCCNC(=N)N)NC(=O)[C@H](CC(C)C)NC(=O)CNC(=O)[C@H](CCC(=O)O)NC2=O` showed a pIC50 in assay [2] of 8.96.
Same read-out and setting: the value for `C#CC[C@H](NC(=O)[C@H](C)N)C(=O)N[C@H]1CSSC[C@@H]2NC(=O)[C@@H]3CSSC[C@@H](C(=O)N[C@@H](CCCNC(=N)N)C(=O)N[C@@H](CCCCN)C(=O)N[C@@H](CCC(=O)O)C(=O)N[C@H](C(N)=O)[C@@H](C)CC)NC(=O)[C@H](Cc4c[nH]c5ccc(Br)cc45)NC(=O)[C@H](CC(C)C)NC(=O)[C@H](CCCCN)NC(=O)[C@H](CSSC[C@H](NC(=O)[C@H]([C@@H](C)O)NC(=O)[C@H](Cc4c[nH]c5ccccc45)NC(=O)[C@H](CCCC)NC(=O)[C@H](Cc4c[nH]c5ccccc45)NC(=O)[C@H](CCCCN)NC(=O)[C@H](CCC(N)=O)NC1=O)C(=O)N[C@@H](CC(=O)O)C(=O)N[C@@H](CO)C(=O)N[C@@H](CCCCN)C(=O)N[C@@H](CCCNC(=N)N)C(=O)N[C@@H](C)C(=O)N3)NC(=O)[C@H](CCCNC(=N)N)NC(=O)[C@H](CC(C)C)NC(=O)CNC(=O)[C@H](CCC(=O)O)NC2=O` was 9.00.
In the case of `C#CC[C@H](N)C(=O)N[C@@H](Cc1ccc(O)cc1)C(=O)N[C@H]1CSSC[C@@H]2NC(=O)[C@@H]3CSSC[C@@H](C(=O)N[C@@H](CCCNC(=N)N)C(=O)N[C@@H](CCCCN)C(=O)N[C@@H](CCC(=O)O)C(=O)N[C@H](C(N)=O)[C@@H](C)CC)NC(=O)[C@H](Cc4c[nH]c5ccccc45)NC(=O)[C@H](CC(C)C)NC(=O)[C@H](CCCCN)NC(=O)[C@H](CSSC[C@H](NC(=O)[C@H]([C@@H](C)O)NC(=O)[C@H](Cc4c[nH]c5ccccc45)NC(=O)[C@H](CCCC)NC(=O)[C@H](Cc4c[nH]c5ccc(Br)cc45)NC(=O)[C@H](CCCCN)NC(=O)[C@H](CCC(N)=O)NC1=O)C(=O)N[C@@H](CC(=O)O)C(=O)N[C@@H](CO)C(=O)N[C@@H](CCCCN)C(=O)N[C@@H](CCCNC(=N)N)C(=O)N[C@@H](C)C(=O)N3)NC(=O)[C@H](CCCNC(=N)N)NC(=O)[C@H](CC(C)C)NC(=O)CNC(=O)[C@H](CCC(=O)O)NC2=O`, the negative-log IC50 (pIC50) in assay [2] is 7.66.
Still for that read-out and setting: to `C#CC[C@H](N)C(=O)N[C@@H](Cc1ccc(O)cc1)C(=O)N[C@H]1CSSC[C@@H]2NC(=O)[C@@H]3CSSC[C@@H](C(=O)N[C@@H](CCCNC(=N)N)C(=O)N[C@@H](CCCCN)C(=O)N[C@@H](CCC(=O)O)C(=O)N[C@H](C(N)=O)[C@@H](C)CC)NC(=O)[C@H](Cc4c[nH]c5ccccc45)NC(=O)[C@H](C4CCCCC4)NC(=O)[C@H](CCCCN)NC(=O)[C@H](CSSC[C@H](NC(=O)[C@H]([C@@H](C)O)NC(=O)[C@H](Cc4c[nH]c5ccccc45)NC(=O)[C@H](CCCC)NC(=O)[C@H](Cc4c[nH]c5ccccc45)NC(=O)[C@H](CCCCN)NC(=O)[C@H](CCC(N)=O)NC1=O)C(=O)N[C@@H](CC(=O)O)C(=O)N[C@@H](CO)C(=O)N[C@@H](CCCCN)C(=O)N[C@@H](CCCNC(=N)N)C(=O)N[C@@H](C)C(=O)N3)NC(=O)[C@H](CCCNC(=N)N)NC(=O)[C@H](CC(C)C)NC(=O)CNC(=O)[C@H](CCC(=O)O)NC2=O` belongs 9.30.
Still for that read-out and setting: to `C#CC[C@H](N)C(=O)N[C@@H](Cc1ccc(O)cc1)C(=O)N[C@H]1CSSC[C@@H]2NC(=O)[C@@H]3CSSC[C@@H](C(=O)N[C@@H](CCCNC(=N)N)C(=O)N[C@@H](CCCCN)C(=O)N[C@@H](CCC(=O)O)C(=O)N[C@H](C(N)=O)[C@@H](C)CC)NC(=O)[C@H](Cc4c[nH]c5ccc(Br)cc45)NC(=O)[C@H](C4CCCCC4)NC(=O)[C@H](CCCCN)NC(=O)[C@H](CSSC[C@H](NC(=O)[C@H]([C@@H](C)O)NC(=O)[C@H](Cc4c[nH]c5ccccc45)NC(=O)[C@H](CCCC)NC(=O)[C@H](Cc4c[nH]c5ccccc45)NC(=O)[C@H](CCCCN)NC(=O)[C@H](CCC(N)=O)NC1=O)C(=O)N[C@@H](CC(=O)O)C(=O)N[C@@H](CO)C(=O)N[C@@H](CCCCN)C(=O)N[C@@H](CCCNC(=N)N)C(=O)N[C@@H](C)C(=O)N3)NC(=O)[C@H](CCCNC(=N)N)NC(=O)[C@H](CC(C)C)NC(=O)CNC(=O)[C@H](CCC(=O)O)NC2=O` belongs 7.71; to `C#CC[C@H](N)C(=O)N[C@@H](Cc1ccc(O)cc1)C(=O)N[C@H]1CSSC[C@@H]2NC(=O)[C@@H]3CSSC[C@@H](C(=O)N[C@@H](CCCNC(=N)N)C(=O)N[C@@H](CCCCN)C(=O)N[C@@H](CCC(=O)O)C(=O)N[C@H](C(N)=O)[C@@H](C)CC)NC(=O)[C@H](CCc4ccccc4)NC(=O)[C@H](CC(C)C)NC(=O)[C@H](CCCCN)NC(=O)[C@H](CSSC[C@H](NC(=O)[C@H]([C@@H](C)O)NC(=O)[C@H](Cc4c[nH]c5ccccc45)NC(=O)[C@H](CCCC)NC(=O)[C@H](Cc4c[nH]c5ccccc45)NC(=O)[C@H](CCCCN)NC(=O)[C@H](CCC(N)=O)NC1=O)C(=O)N[C@@H](CC(=O)O)C(=O)N[C@@H](CO)C(=O)N[C@@H](CCCCN)C(=O)N[C@@H](CCCNC(=N)N)C(=O)N[C@@H](C)C(=O)N3)NC(=O)[C@H](CCCNC(=N)N)NC(=O)[C@H](CC(C)C)NC(=O)CNC(=O)[C@H](CCC(=O)O)NC2=O`, less than 6.00.
